Values quoted from earlier work, collected in patent US5093338A, “Lipophilic macrolide useful as an immunosuppressant” (Merck & Co., Inc., priority 1991, dated 1992).

Assays:
transplantation = conditions: combination with Cyclosporin A; heart, kidney, bowel, pancreas or other transplantation
antibody production = conditions: rats
[1] = rats given heterotopic heart allografts
[2] = test system: adjuvant-induced arthritis; conditions: rats
[3] = test system: heterotopic heart allografts
[4] = test system: allergic encephalomyelitis; conditions: rats

CO[C@H]1C[C@@H]2CC[C@@H](C)[C@@](O)(O2)C(=O)C(=O)N2CCCC[C@H]2C(=O)O[C@H]([C@H](C)C[C@@H]2CC[C@@H](O)[C@H](OC)C2)CC(=O)[C@H](C)/C=C(\C)[C@@H](O)[C@@H](OC)C(=O)[C@H](C)C[C@H](C)/C=C/C=C/C=C/1C [rapamycin]
amount of Cyclosporin A required for immunosuppressive effect in combination (transplantation): reducing the amount of Cyclosporin A required | inhibiting antibody production (antibody production): inhibiting the response to allergic encephalomyelitis,adjuvant-induced arthritis and antibody production | toxicity compared with that anticipated with FK-506 [1]: less toxicity was experienced than would be anticipated with FK-506 | inhibiting the response to adjuvant-induced arthritis [2]: inhibiting the response to allergic encephalomyelitis,adjuvant-induced arthritis | immunosuppressive in rats given heterotopic heart allografts [3]: immunosuppressive | inhibiting the response to allergic encephalomyelitis [4]: inhibiting the response to allergic encephalomyelitis
